Assay results as given in article PMC9786170, “The Pharmacological Potential of Novel Melittin Variants from the Honeybee and Solitary Bees against Inflammation and Cancer” (Toxins, 2022).
Entries after “also recorded” stand apart in the source; their conditions may differ.

Assays:
RAW264.7 cells [1] = test: Cell viability assay (WST-8/Orangu formazan) in RAW264.7 cells; format: cell-based, murine; details: RAW264.7, 25 µg/mL, 24 h, WST-8 formazan absorbance, vehicle = 100%, n = 3
Description: Figure 1 Toxicity characterization of cells treated with melittin peptides. (A,B) For the viability assay, RAW264.7 (A) or HEK293T (B) cells were treated with bee venom compounds in the indicated concentrations for 24 h. Cells were incubated with WST-8 and the formed formazan was detected by absorbance measurements. (C) For the proliferation assay, HMEC-1 cells were grown in low density and treated after 24 h with the indicated peptide (25 µg/mL) for 72 h. Cells were stained with crystal violet solution. The amount of DNA-bound crystal violet was detected by absorbance measurements. (D) The number of sub-diploidic cells was determined by staining with propidium iodide (PI) and quantified to assess apoptosis of HUVECs. Data are expressed as mean ± SEM. (A) n = 3, (B) n = 4, (C) n = 2–3, (D) n = 2. * p ≤ 0.05 versus control.
(§1) For assessing the cytotoxicity of all peptides, various cell types and assays were utilized. To determine the cell viability of HEK293T and RAW246.7 cells, the Orangu^TM assay (Cell Guidance Systems Ltd., Cambridge, UK) was used, as previously described. 2 × 10^5 HEK293T or 2 × 10^5 RAW246.7 were seeded in 96-well plates. Different concentrations (0, 0.25, 2.5, 25 µg/mL) of melittin peptides or vehicle (DMSO) were added. After 24 h of incubation at 37 °C and 5% CO2, 10 µL of Orangu^TM cell counting solution was added and incubated for 60 min. After incubation, absorbance was measured at a wavelength of 450 nm with a reference at 650 nm at an EnSpire 2300 Multimode Plate Reader (Perkin Elmer, Lübeck, Germany). To calculate cell viability, the absorbance of vehicle-treated cells was set to 100%, and the melittin derivates-treated samples were correlated to them.

RAW264.7 cells [2] = test: NO inhibition assay (LPS-stimulated, Griess); format: cell-based, murine; details: RAW264.7, peptide 30 min, then 100 ng/mL LPS 24 h
Description: Figure 4 Influence of melittin derivates on inflammation-associated cell functions. (A,B) For the NO induction assay (A), RAW264.7 cells were treated with melittin peptides in the indicated concentrations for 24 h. For the NO inhibition assay (B), RAW264.7 cells were pretreated with melittin peptides in the indicated concentrations for 30 min and then stimulated with 100 ng/mL LPS for 24 h. NO was detected in the supernatant using the Griess method. […] THP-1 cell adhesion under static conditions. HUVECs were grown to confluence, preincubated with bee venoms for 30 min, and activated with TNF (10 ng/mL) for 24 h. For the leukocyte adhesion assay, untreated THP-1 cells were stained with CellTracker Green and were allowed to adhere to the treated HUVECs for 5 min. The adhesion of leukocytes onto Ecs was quantified by fluorescence measurements for all cell adhesion experiments. Data are expressed as means ± SEM, (A,B) n = 3, (C) n = 2. * p ≤ 0.05 vs. TNF (positive) control.
2 × 10^4 RAW264.7 macrophages/well were plated in a 96-well plate and cultured for 24 h at 37 °C. To investigate if the melittin peptides induce nitrogen oxide (NO) synthesis, the melittin peptides, control (DMSO), and positive control (100 ng/mL lipopolysaccharide (LPS)) were added. To evaluate the effect of melittin peptides on inhibiting NO synthesis, the cells were pre-incubated with peptides or control (DMSO) for 30 min before 100 ng/mL LPS were added. After 24 h supernatants were collected and stored at −80 °C.
NO was determined with the Griess method. Briefly, for the standard curve, different concentrations of sodium nitrite (0–50 µM) were prepared in the medium. A total of 80 µL cell supernatant or standard sample were added to a 96-well microplate and subsequently, 20 µL sulfanilamide solution (120 mg sulfanilamide in 30 mL 1 N hydrochloric acid) and 20 µL naphthylenediamine solution (180 mg N-(1-naphthyl)ethylenediamine dihydrochloride in 30 mL water) were added. After 15 min of incubation, the absorbance (540 nm) was measured with the EnSpire Plate Reader (PerkinElmer, Waltham, MA, USA). For the induction assay, the NO levels of the melittin peptides-treated samples were related to the DMSO-treated sample. For the inhibition assay, the NO levels of the melittin peptides-treated cells were correlated with the LPS-treated samples.

non-cancer cells = test: Viability of non-cancer cells (RAW264.7, HEK293T, HMEC, HUVEC), overall statements; format: cell-based
Text: First, we studied the activity of the melittin peptides on the viability of non-cancer cells. The toxicity of all melittin variants was investigated in monocyte/macrophage-like cells (RAW264.7), human embryonic kidney 293 cells (HEK293T), human microvascular endothelial cells (HMEC), and primary human umbilical vein endothelial cells (HUVECs).
as §1, with “Different concentrations (0, 0.25, 2.5, 25 µg/mL) of melittin peptides or vehicle (DMSO) were added. After 24 h of incubation at 37 °C and 5% CO2, 10 µL of Orangu^TM cell counting solution was added and incubated for 60 min.” left out
HMECs (2000 cells/well) were seeded into collagen-coated 96-well plates and grown for 24 h. […] Absorbance was measured at 590 nm using a plate reader (Infinite F200Pro, Tecan, Männedorf, Switzerland). The proliferation percentage was calculated by normalizing to the untreated control (24 h) and compared to the DMSO control (0.03%) of 72 h incubation. […]

calmodulin = details: cited from earlier work
Text: These two systems are rarely independent but are often antagonistic, sometimes synergistic, or occasionally redundant. Ca^2+ is never elevated without a possible consequence—either positive or negative— ...

Substance | reduction of cell viability (RAW264.7 cells [1]) | inhibition of LPS-induced NO synthesis (RAW264.7 cells [2]; n = 3, listed as Melittin) | inhibition of LPS-induced NO synthesis (RAW264.7 cells [2]; n = 3, listed as melittin) | reduction of viability (non-cancer cells; Discussion, cell line not given) | inhibition of calmodulin function (calmodulin) | inhibition of LPS-induced NO synthesis (RAW264.7 cells [2]; n = 3) | viability of non-cancer (healthy) cells (non-cancer cells; summary statement, Figure 6)
melittin [Melt, reference compound] | more than 90% | prevent the LPS-induced NO release | prevented LPS-induced NO synthesis in a concentration-dependent manner | 90% | competitive inhibitor of the calmodulin function | – | –
xylopin [Xac4] | – | – | – | – | – | prevented LPS-induced NO synthesis in a concentration-dependent manner; also recorded: reducing the inflammation-associated interaction of endothelial cells with leukocytes and NO synthesis | without harming healthy cells
